Source: paper PMC7464788, “Modification and Targeted Design of N-Terminal Truncates Derived from Brevinin with Improved Therapeutic Efficacy” (Biology, 2020)
Converted amounts (≈) assume the structure as drawn. “And” between values parts separate entries of the source, which are not always exact repeats. Equal entries are not always repeated. Positions of bridges follow the written chain, without caps; N, C: chain ends. Residues, ends and D or L forms follow the SMILES beside them.

Experiments:
horse erythrocytes = test: Haemolytic assay; format: cell-based; conditions: 2% (v/v) horse red blood cells, 37 °C, 2 h; 1% Triton-X 100 positive control; three times in five replicates
Experimental: The haemolytic assay was carried out to detect the cytotoxicity of each peptide to erythrocytes obtained from fresh defibrinated horse blood as described before. An appropriate volume of horse blood solution was collected via washing and transferring until the supernatant was clear. Then, 2% (v/v) suspension of red blood cells were incubated with peptide at 37 °C for 2 h. For positive and negative controls, the red blood cells were incubated with 1% (v/v) Triton-X 100 and Phosphate-buffered saline (PBS) solution, respectively. The 10% of maximal haemolysis concentration (HC10, μM) was utilised to assess the haemolytic potential. Experiments were repeated three times in five replicates.

[1] = test system: Klebsiella pneumoniae (ATCC 43816); format: cell-based
Experimental: (§1) The antimicrobial assay was carried out to detect the minimum inhibitory concentration (MIC) and the minimum bactericidal concentration (MBC) of each peptide on the microbes as described previously. Seven different microorganisms were used in the assay: Gram-positive bacteria Staphylococcus aureus (NCTC10788), Enterococcus faecalis (NCTC12697), and methicillin-resistant S. aureus (MRSA) (NCTC12493); Gram-negative bacteria Escherichia coli (NCTC10418), Pseudomonas aeruginosa (ATCC27853), and Klebsiella pneumoniae (ATCC 43816); and fungi Candida albicans (NCYC1467). Bacterial strains were inoculated and grown to mid-log phase in fresh Mueller Hinton broth (MHB) at 37 °C for overnight, then bacteria inoculum suspensions were subcultured until reaching the logarithmic growth phase by measuring OD of the cultures at wavelength 550 nm. Then, 99 µL bacteria and 1 µL peptide solution were mixed in the 96-wells microplate. For positive and negative controls, the bacteria were incubated with antibiotics (Norfloxacin for Gram-positive bacteria and Gram-negative bacteria; Amphotericin B for fungi) solution and MHB medium, respectively. Experiments were repeated five times in five replicates.

[2] = test system: Pseudomonas aeruginosa (ATCC27853); format: cell-based
Experimental: as §1

[3] = test system: Enterococcus faecalis (NCTC12697); format: cell-based
Experimental: as §1

[4] = test system: Candida albicans (NCYC1467); format: cell-based
Experimental: as §1

[5] = test system: methicillin-resistant S. aureus (MRSA) (NCTC12493); format: cell-based, Staphylococcus aureus
Experimental: as §1

[6] = test system: Escherichia coli (NCTC10418); format: cell-based
Experimental: as §1

[7] = test system: Staphylococcus aureus (NCTC10788); format: cell-based
Experimental: as §1

Structure (SMILES)	HC10 (concentration causing 10% red cell lysis) (horse erythrocytes)	MBC K. pneumoniae [1] [µM]	MIC K. pneumoniae [1] [µM]	MBC P. aeruginosa [2] [µM]	MIC P. aeruginosa [2] [µM]	MBC E. faecalis [3] [µM]	MIC E. faecalis [3] [µM]	MBC C. albicans [4] [µM]	MIC C. albicans [4] [µM]	MBC MRSA [5] [µM]	MIC MRSA [5] [µM]	MBC E. coli [6] [µM]	MIC E. coli [6] [µM]	MBC S. aureus [7] [µM]
CC[C@H](C)[C@@H]1NC(=O)[C@H](C)NC(=O)[C@@H](NC(=O)[C@H](Cc2ccccc2)NC(=O)[C@@H](NC(=O)[C@H](CCCCN)NC(=O)[C@@H]2CCCN2C(=O)[C@H](CC(C)C)NC(=O)[C@H](Cc2ccccc2)NC(=O)[C@@H](N)CCCCN)[C@@H](C)CC)CSSC[C@@H](C(=O)O)NC(=O)[C@H](CCCCN)NC(=O)[C@H](CCCCN)NC(=O)[C@H]([C@@H](C)O)NC1=O [KB2] (H-KFLPKIFCAITKKC-OH; disulfide 8-14)	154 µM	256 (≈ 419 µg/mL)	256 (≈ 419 µg/mL)	> 512	512 (≈ 839 µg/mL)	> 512	512 (≈ 839 µg/mL)	512 (≈ 839 µg/mL)	128 (≈ 210 µg/mL)	128 (≈ 210 µg/mL)	16 (≈ 26.2 µg/mL)			
CC[C@H](C)[C@@H]1NC(=O)[C@H](C)NC(=O)[C@@H](NC(=O)[C@H](Cc2ccccc2)NC(=O)[C@@H](NC(=O)[C@H](CCCCN)NC(=O)[C@@H]2CCCN2C(=O)[C@H](CC(C)C)NC(=O)[C@H](Cc2ccccc2)NC(=O)[C@H](CCCCN)NC(=O)[C@@H](N)CCCCN)[C@@H](C)CC)CSSC[C@@H](C(=O)O)NC(=O)[C@H](CCCCN)NC(=O)[C@H](CCCCN)NC(=O)[C@H]([C@@H](C)O)NC1=O [KKB2] (H-KKFLPKIFCAITKKC-OH; disulfide 9-15)	207 µM	256 (≈ 452 µg/mL)	128 (≈ 226 µg/mL)	> 512	256 (≈ 452 µg/mL)	512 (≈ 904 µg/mL)	512 (≈ 904 µg/mL)	64 (≈ 113 µg/mL)	32 (≈ 56.5 µg/mL)	64 (≈ 113 µg/mL)	16 (≈ 28.3 µg/mL)	32 (≈ 56.5 µg/mL)	16 (≈ 28.3 µg/mL)	64 (≈ 113 µg/mL)
CC[C@H](C)[C@@H]1NC(=O)[C@H](C)NC(=O)[C@@H](NC(=O)[C@H](Cc2ccccc2)NC(=O)[C@@H](NC(=O)[C@H](CCCCN)NC(=O)[C@H](Cc2c[nH]c3ccccc23)NC(=O)[C@@H]2CCCN2C(=O)[C@H](CC(C)C)NC(=O)[C@H](Cc2ccccc2)NC(=O)[C@H](CCCCN)NC(=O)[C@@H](N)CCCCN)[C@@H](C)CC)CSSC[C@@H](C(=O)O)NC(=O)[C@H](CCCCN)NC(=O)[C@H](CCCCN)NC(=O)[C@H]([C@@H](C)O)NC1=O [KKWB2] (H-KKFLPWKIFCAITKKC-OH; disulfide 10-16)	140.04 µM	32 (≈ 62.5 µg/mL)	32 (≈ 62.5 µg/mL)	64 (≈ 125 µg/mL)	64 (≈ 125 µg/mL)	512 (≈ 1000 µg/mL)	256 (≈ 500 µg/mL)	32 (≈ 62.5 µg/mL)	8 (≈ 15.6 µg/mL)	32 (≈ 62.5 µg/mL)	8 (≈ 15.6 µg/mL)	32 (≈ 62.5 µg/mL)	16 (≈ 31.2 µg/mL)	16 (≈ 31.2 µg/mL)
CC[C@H](C)[C@@H]1NC(=O)[C@H](C)NC(=O)[C@@H](NC(=O)[C@H](Cc2ccccc2)NC(=O)[C@@H](NC(=O)[C@H](CCCCN)NC(=O)[C@H](Cc2c[nH]c3ccccc23)NC(=O)[C@@H]2CCCN2C(=O)[C@H](CC(C)C)NC(=O)[C@H](Cc2ccccc2)NC(=O)[C@@H](N)CCCCN)[C@@H](C)CC)CSSC[C@@H](C(=O)O)NC(=O)[C@H](CCCCN)NC(=O)[C@H](CCCCN)NC(=O)[C@H]([C@@H](C)O)NC1=O [KWB2] (H-KFLPWKIFCAITKKC-OH; disulfide 9-15)	99.81 µM	128 (≈ 234 µg/mL)	64 (≈ 117 µg/mL)	256 (≈ 467 µg/mL)	128 (≈ 234 µg/mL)	512 (≈ 934 µg/mL)	256 (≈ 467 µg/mL)	64 (≈ 117 µg/mL)	16 (≈ 29.2 µg/mL)	64 (≈ 117 µg/mL)	8 (≈ 14.6 µg/mL)	32 (≈ 58.4 µg/mL)	16 (≈ 29.2 µg/mL)	32 (≈ 58.4 µg/mL)
CC[C@H](C)[C@@H]1NC(=O)[C@H](C)NC(=O)[C@@H](NC(=O)[C@H](Cc2ccccc2)NC(=O)[C@@H](NC(=O)[C@H](CCCCN)NC(=O)[C@H](Cc2c[nH]c3ccccc23)NC(=O)[C@@H]2CCCN2C(=O)[C@H](Cc2c[nH]c3ccccc23)NC(=O)[C@H](Cc2ccccc2)NC(=O)[C@@H](N)CCCCN)[C@@H](C)CC)CSSC[C@@H](C(=O)O)NC(=O)[C@H](CCCCN)NC(=O)[C@H](CCCCN)NC(=O)[C@H]([C@@H](C)O)NC1=O [KW^3,5B2] (H-KFWPWKIFCAITKKC-OH; disulfide 9-15)	32.07 µM	64 (≈ 121 µg/mL)	32 (≈ 60.7 µg/mL)	128 (≈ 243 µg/mL)	64 (≈ 121 µg/mL)	256 (≈ 486 µg/mL)	256 (≈ 486 µg/mL)	32 (≈ 60.7 µg/mL)	8 (≈ 15.2 µg/mL)	32 (≈ 60.7 µg/mL)	8 (≈ 15.2 µg/mL)	32 (≈ 60.7 µg/mL)	16 (≈ 30.4 µg/mL)	16 (≈ 30.4 µg/mL)
CC[C@H](C)[C@@H]1NC(=O)[C@H](C)NC(=O)[C@@H](NC(=O)[C@H](Cc2ccccc2)NC(=O)[C@H](Cc2c[nH]c3ccccc23)NC(=O)[C@H](CCCCN)NC(=O)[C@H](Cc2c[nH]c3ccccc23)NC(=O)[C@@H]2CCCN2C(=O)[C@H](CC(C)C)NC(=O)[C@H](Cc2ccccc2)NC(=O)[C@@H](N)CCCCN)CSSC[C@@H](C(=O)O)NC(=O)[C@H](CCCCN)NC(=O)[C@H](CCCCN)NC(=O)[C@H]([C@@H](C)O)NC1=O [KW^5,7B2] (H-KFLPWKWFCAITKKC-OH; disulfide 9-15)	58.42 µM	64 (≈ 121 µg/mL)	32 (≈ 60.7 µg/mL)	128 (≈ 243 µg/mL)	64 (≈ 121 µg/mL)	512 (≈ 971 µg/mL)	256 (≈ 486 µg/mL)	32 (≈ 60.7 µg/mL)	16 (≈ 30.4 µg/mL)	32 (≈ 60.7 µg/mL)	8 (≈ 15.2 µg/mL)	64 (≈ 121 µg/mL)	16 (≈ 30.4 µg/mL)	16 (≈ 30.4 µg/mL)
CC[C@H](C)[C@@H]1NC(=O)[C@H](C)NC(=O)[C@@H](NC(=O)[C@H](CCCCN)NC(=O)[C@H](C)NC(=O)[C@H](C)NC(=O)[C@H](CC(C)C)NC(=O)CNC(=O)[C@H](C)NC(=O)[C@@H](NC(=O)[C@H](CC(C)C)NC(=O)[C@@H]2CCCN2C(=O)[C@H](CC(C)C)NC(=O)[C@@H](N)Cc2ccccc2)[C@@H](C)CC)CSSC[C@@H](C(=O)O)NC(=O)[C@H](CCCCN)NC(=O)[C@H](CCCCN)NC(=O)[C@H]([C@@H](C)O)NC1=O [Peptide B1A1] (H-FLPLIAGLAAKCAITKKC-OH; disulfide 12-18)	could not be calculated and >512 µM	> 512	> 512	> 512	> 512	> 512	> 512	512 (≈ 952 µg/mL)	512 (≈ 952 µg/mL)	> 512	> 512	> 512	512 (≈ 952 µg/mL)	> 512
